From PubChem BioAssay (NCI)
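48-hour exposure; five concentrations; linearly interpolated endpoints. Here, GI50 denotes the concentration required for 50% inhibition of growth. TGI is the concentration that stops growth completely.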

Columns and labels:
Test in all cases: NCI-60 cell line screen, 48 h
[1] = tested on: SK-MEL-5 melanoma
[2] = tested on: ACHN renal
[3] = tested on: K-562 leukemia
[4] = tested on: MDA-MB-435
[5] = tested on: UACC-257 melanoma
[6] = tested on: HCT-116 colon
[7] = tested on: SNB-75 CNS
[8] = tested on: LOX IMVI melanoma
[9] = tested on: MALME-3M melanoma
[10] = tested on: BT-549 breast
[11] = tested on: UO-31 renal
[12] = tested on: TK-10 renal
[13] = tested on: A549 NSCLC
[14] = tested on: U251 CNS
[15] = tested on: DU-145 prostate
[16] = tested on: UACC-62 melanoma
[17] = tested on: NCI/ADR-RES ovarian
[18] = tested on: EKVX NSCLC
[19] = tested on: IGROV1 ovarian
[20] = tested on: CCRF-CEM leukemia
[21] = tested on: SNB-19 CNS
[22] = tested on: KM12 colon
[23] = tested on: HCC-2998 colon
[24] = tested on: NCI-H226 lung
[25] = tested on: OVCAR-3 ovarian
[26] = tested on: NCI-H522 lung
[27] = tested on: SK-MEL-28 melanoma
[28] = tested on: SN12C renal
[29] = tested on: OVCAR-8 ovarian
[30] = tested on: NCI-H23 lung
[31] = tested on: T-47D breast
[32] = tested on: HOP-62 NSCLC
[33] = tested on: OVCAR-4 ovarian
[34] = tested on: SK-OV-3 ovarian
[35] = tested on: RPMI-8226 leukemia
[36] = tested on: OVCAR-5 ovarian
[37] = tested on: HT29 colon
[38] = tested on: M14 melanoma
[39] = tested on: HL-60(TB) leukemia
[40] = tested on: SF-539 CNS
[41] = tested on: SF-295 CNS
[42] = tested on: MCF7 breast
[43] = tested on: CAKI-1 renal
[44] = tested on: SW-620 colon
[45] = tested on: A498 renal
[46] = tested on: SR leukemia
[47] = tested on: COLO 205 colon
[48] = tested on: HOP-92 NSCLC
[49] = tested on: SF-268 CNS
[50] = tested on: NCI-H460 lung
[51] = tested on: 786-0 renal
[52] = tested on: RXF 393 renal
[53] = tested on: HCT-15 colon
[54] = tested on: MDA-MB-231 breast
[55] = tested on: MOLT-4 leukemia
[56] = tested on: PC-3 prostate
[57] = tested on: HS 578T breast
[58] = tested on: SK-MEL-2 melanoma

With `O=C(NNc1nc2cc(F)ccc2n2c(CN3CC4(COC4)C3)ccc12)c1cnccn1` the GI50 [1] was 673 nM, the TGI [1] was 5330 nM and the GI50 [2] was 233 nM. The TGI [2] was 11700 nM, the GI50 [3] was 502 nM and the TGI [3] was over 100000 nM. It also gave a GI50 [4] of 1300 nM, a TGI [4] of over 47500 nM and a GI50 [5] of 1720 nM. It also gave a TGI [5] of 8070 nM, a GI50 [6] of 373 nM and a TGI [6] of 13300 nM. The GI50 [7] was 756 nM, the TGI [7] was 11000 nM and the GI50 [8] was 557 nM. It also gave a TGI [8] of 9720 nM, a GI50 [9] of 1600 nM and a TGI [9] of 11900 nM. It also gave a GI50 [10] of 907 nM, a TGI [10] of 9220 nM and a GI50 [11] of 114 nM. For the same molecule, the TGI [11] was 5710 nM, the GI50 [12] was 263 nM and the TGI [12] was 23200 nM. The GI50 [13] was 611 nM, the TGI [13] was 32700 nM and the GI50 [14] was 395 nM. For the same molecule, the TGI [14] was over 53100 nM, the GI50 [15] was 1180 nM and the TGI [15] was over 82400 nM. The GI50 [16] was 406 nM, the TGI [16] was 1960 nM and the GI50 [17] was 386 nM. For the same molecule, the TGI [17] was 9970 nM, the GI50 [18] was 438 nM and the TGI [18] was 30000 nM. For the same molecule, the GI50 [19] was 717 nM, the TGI [19] was 18900 nM and the GI50 [20] was 281 nM. It also gave a TGI [20] of over 70400 nM, a GI50 [21] of 854 nM and a TGI [21] of over 100000 nM. It also gave a GI50 [22] of 579 nM, a TGI [22] of over 64200 nM and a GI50 [23] of 709 nM. It also gave a TGI [23] of over 45900 nM, a GI50 [24] of 1050 nM and a TGI [24] of 10800 nM. For the same molecule, the GI50 [25] was 650 nM, the TGI [25] was 22700 nM and the GI50 [26] was 497 nM. It also gave a TGI [26] of 5500 nM, a GI50 [27] of 861 nM and a TGI [27] of 25100 nM. It also gave a GI50 [28] of 952 nM, a TGI [28] of 33500 nM and a GI50 [29] of 404 nM. For the same molecule, the TGI [29] was 16300 nM, the GI50 [30] was 1780 nM and the TGI [30] was 41800 nM. It also gave a GI50 [31] of 558 nM, a TGI [31] of 22300 nM and a GI50 [32] of 442 nM. It also gave a TGI [32] of 22100 nM, a GI50 [33] of 490 nM and a TGI [33] of over 39100 nM. For the same molecule, the GI50 [34] was 548 nM, the TGI [34] was 9880 nM and the GI50 [35] was 689 nM. The TGI [35] was 28100 nM, the GI50 [36] was 1160 nM and the TGI [36] was 34300 nM. It also gave a GI50 [37] of 499 nM, a TGI [37] of 16800 nM and a GI50 [38] of 451 nM. The TGI [38] was 3530 nM, the GI50 [39] was 469 nM and the TGI [39] was 12900 nM. It also gave a GI50 [40] of 675 nM, a TGI [40] of 8970 nM and a GI50 [41] of 319 nM. For the same molecule, the TGI [41] was 12200 nM, the GI50 [42] was 596 nM and the TGI [42] was 9810 nM. It also gave a GI50 [43] of 330 nM, a TGI [43] of 13200 nM and a GI50 [44] of 620 nM. For the same molecule, the TGI [44] was over 56300 nM, the GI50 [45] was 16700 nM and the TGI [45] was 34000 nM. The GI50 [46] was 409 nM, the TGI [46] was over 100000 nM and the GI50 [47] was 401 nM. It also gave a TGI [47] of 16300 nM, a GI50 [48] of 983 nM and a TGI [48] of 23300 nM. For the same molecule, the GI50 [49] was 616 nM, the TGI [49] was over 100000 nM and the GI50 [50] was 259 nM. The TGI [50] was 11600 nM, the GI50 [51] was 458 nM and the TGI [51] was 11200 nM. For the same molecule, the GI50 [52] was 2290 nM, the TGI [52] was 13700 nM and the GI50 [53] was 188 nM. For the same molecule, the TGI [53] was 26300 nM, the GI50 [54] was 696 nM and the TGI [54] was 19500 nM. For the same molecule, the GI50 [55] was 443 nM, the TGI [55] was over 75600 nM and the GI50 [56] was 719 nM. The TGI [56] was 31400 nM, the GI50 [57] was 3040 nM and the TGI [57] was over 95200 nM. It also gave a GI50 [58] of 2190 nM and a TGI [58] of 14700 nM.
